Here are results for one compound from patent US7635572B2, “Methods for conducting assays for enzyme activity on protein microarrays” (Life Technologies Corporation, priority 2004, dated 2009).

Holding throughout (experiment): Further analysis of a plurality of inhibitors and a plurality of kinases on microarray (Example IX, Table 5);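 as to Inhibition level, CDKL3: level 0 no or unclear inhibition to Level 2 substantial inhibition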;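 as to Inhibition level, FYN: level 0 no or unclear inhibition to Level 2 substantial inhibition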;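 as to Inhibition level, MAP2K4: level 0 none or unclear Level 1 marginal Level 2 substantial inhibition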;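 as to Inhibition level, PIM1: level 0 no or unclear inhibition to Level 2 substantial inhibition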;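 as to Inhibition level, STK6: level 0 no or unclear inhibition to Level 2 substantial inhibition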;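 as to Inhibition level, TGFBR2: level 0 none or unclear then 1 little or marginal then 2 substantial inhibition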;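 as to Inhibition level, TLK2: level 0 none or unclear Level 1 marginal Level 2 substantial inhibition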
Format in all cases: biochemical

Test [1] deals with T1, plurality of kinases (Table 5) (Homo sapiens, UniProt O14965).
T1 sequence (O14965 1-403): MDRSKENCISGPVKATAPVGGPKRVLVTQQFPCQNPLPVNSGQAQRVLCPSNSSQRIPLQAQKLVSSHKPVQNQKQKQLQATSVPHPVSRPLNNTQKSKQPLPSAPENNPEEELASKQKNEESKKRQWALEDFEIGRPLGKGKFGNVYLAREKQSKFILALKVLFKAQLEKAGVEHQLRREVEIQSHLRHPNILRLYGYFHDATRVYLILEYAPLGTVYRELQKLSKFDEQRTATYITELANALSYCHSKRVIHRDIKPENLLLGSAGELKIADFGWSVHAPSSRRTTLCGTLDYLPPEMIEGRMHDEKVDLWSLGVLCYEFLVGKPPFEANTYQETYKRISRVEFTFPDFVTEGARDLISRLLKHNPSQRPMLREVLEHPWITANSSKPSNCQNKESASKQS
The note with it: plate C6.

The target of test [2] is plurality of kinases (Table 5) (Homo sapiens, UniProt P06239). The note with it: plate A6.
plurality of kinases (Table 5) (Homo sapiens, UniProt P06239), sequence (P06239 whole entry): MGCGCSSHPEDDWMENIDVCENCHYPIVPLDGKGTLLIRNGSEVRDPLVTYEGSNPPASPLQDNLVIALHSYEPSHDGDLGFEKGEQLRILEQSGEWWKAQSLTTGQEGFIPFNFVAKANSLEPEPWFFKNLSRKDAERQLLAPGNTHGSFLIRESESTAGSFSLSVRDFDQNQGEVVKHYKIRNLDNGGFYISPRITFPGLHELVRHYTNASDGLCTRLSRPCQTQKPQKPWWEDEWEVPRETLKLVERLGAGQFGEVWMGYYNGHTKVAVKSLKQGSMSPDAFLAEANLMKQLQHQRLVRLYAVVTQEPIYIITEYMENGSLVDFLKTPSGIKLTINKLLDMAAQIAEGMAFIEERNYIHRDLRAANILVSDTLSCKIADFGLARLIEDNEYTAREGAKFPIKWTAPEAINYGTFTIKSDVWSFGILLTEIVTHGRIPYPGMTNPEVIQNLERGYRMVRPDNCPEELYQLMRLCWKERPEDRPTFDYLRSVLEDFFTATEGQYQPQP
The target of test [3] is plurality of kinases (Table 5) (Homo sapiens, UniProt P06241). The conditions noted are these: plate A4, Domain 0.
plurality of kinases (Table 5) (Homo sapiens, UniProt P06241), sequence (P06241 whole entry): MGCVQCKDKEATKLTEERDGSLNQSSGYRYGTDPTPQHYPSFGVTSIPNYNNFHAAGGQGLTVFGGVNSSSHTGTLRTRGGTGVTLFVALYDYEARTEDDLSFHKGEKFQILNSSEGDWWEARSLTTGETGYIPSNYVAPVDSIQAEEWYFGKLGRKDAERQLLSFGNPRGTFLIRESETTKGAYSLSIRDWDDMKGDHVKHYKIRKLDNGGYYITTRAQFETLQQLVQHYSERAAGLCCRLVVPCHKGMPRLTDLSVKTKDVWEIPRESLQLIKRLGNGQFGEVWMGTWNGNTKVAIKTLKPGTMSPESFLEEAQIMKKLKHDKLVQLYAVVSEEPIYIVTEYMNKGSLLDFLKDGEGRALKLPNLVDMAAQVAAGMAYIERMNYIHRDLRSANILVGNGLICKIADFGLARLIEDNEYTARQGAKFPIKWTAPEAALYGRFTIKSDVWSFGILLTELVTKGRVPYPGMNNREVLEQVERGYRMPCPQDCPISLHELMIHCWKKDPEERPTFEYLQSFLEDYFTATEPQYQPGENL
Test [4] concerns the target plurality of kinases (Table 5) (Homo sapiens, UniProt P11309). The note with it: plate C2.
For test [5], the target named is plurality of kinases (Table 5) (Homo sapiens, UniProt P24723). The conditions noted are these: plate B3.
plurality of kinases (Table 5) (Homo sapiens, UniProt P24723), sequence (P24723 whole entry): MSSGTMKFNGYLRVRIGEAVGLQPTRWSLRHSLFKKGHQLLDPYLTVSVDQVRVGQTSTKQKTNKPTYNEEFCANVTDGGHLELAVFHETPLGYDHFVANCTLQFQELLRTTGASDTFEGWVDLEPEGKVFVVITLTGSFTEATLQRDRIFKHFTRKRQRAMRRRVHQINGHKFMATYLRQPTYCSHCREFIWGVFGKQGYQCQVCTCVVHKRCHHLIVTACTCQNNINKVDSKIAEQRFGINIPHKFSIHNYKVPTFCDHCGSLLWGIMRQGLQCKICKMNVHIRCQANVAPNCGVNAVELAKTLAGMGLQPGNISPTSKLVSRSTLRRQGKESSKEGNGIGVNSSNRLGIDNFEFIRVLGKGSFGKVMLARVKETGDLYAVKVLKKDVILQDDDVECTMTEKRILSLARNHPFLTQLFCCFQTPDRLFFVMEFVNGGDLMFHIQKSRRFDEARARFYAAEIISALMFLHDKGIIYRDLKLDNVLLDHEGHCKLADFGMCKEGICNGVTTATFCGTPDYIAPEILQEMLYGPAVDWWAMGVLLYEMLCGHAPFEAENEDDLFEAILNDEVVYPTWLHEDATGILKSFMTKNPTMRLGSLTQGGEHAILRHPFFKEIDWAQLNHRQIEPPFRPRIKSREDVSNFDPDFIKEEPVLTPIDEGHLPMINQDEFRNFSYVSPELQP
Test [6] has as its target plurality of kinases (Table 5) (Homo sapiens, UniProt P37173). The note with it: plate C7.
Test [7] has as its target T2, plurality of kinases (Table 5) (Homo sapiens, UniProt P45985).
T2 sequence (P45985 1-399): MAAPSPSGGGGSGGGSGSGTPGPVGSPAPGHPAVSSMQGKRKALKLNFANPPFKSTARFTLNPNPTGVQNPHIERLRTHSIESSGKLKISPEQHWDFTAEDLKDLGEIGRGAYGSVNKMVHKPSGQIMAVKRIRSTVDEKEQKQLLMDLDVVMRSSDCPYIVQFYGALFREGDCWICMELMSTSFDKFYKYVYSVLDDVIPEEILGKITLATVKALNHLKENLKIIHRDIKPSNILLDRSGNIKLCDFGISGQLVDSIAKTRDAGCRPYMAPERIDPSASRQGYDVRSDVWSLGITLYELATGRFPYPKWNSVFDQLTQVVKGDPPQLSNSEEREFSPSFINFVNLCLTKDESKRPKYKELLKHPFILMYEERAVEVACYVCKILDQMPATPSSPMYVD
The note with it: plate E6.

In test [8] the target is plurality of kinases (Table 5) (Homo sapiens, UniProt P68400). The conditions noted are these: plate D9.
plurality of kinases (Table 5) (Homo sapiens, UniProt P68400), sequence (P68400 whole entry): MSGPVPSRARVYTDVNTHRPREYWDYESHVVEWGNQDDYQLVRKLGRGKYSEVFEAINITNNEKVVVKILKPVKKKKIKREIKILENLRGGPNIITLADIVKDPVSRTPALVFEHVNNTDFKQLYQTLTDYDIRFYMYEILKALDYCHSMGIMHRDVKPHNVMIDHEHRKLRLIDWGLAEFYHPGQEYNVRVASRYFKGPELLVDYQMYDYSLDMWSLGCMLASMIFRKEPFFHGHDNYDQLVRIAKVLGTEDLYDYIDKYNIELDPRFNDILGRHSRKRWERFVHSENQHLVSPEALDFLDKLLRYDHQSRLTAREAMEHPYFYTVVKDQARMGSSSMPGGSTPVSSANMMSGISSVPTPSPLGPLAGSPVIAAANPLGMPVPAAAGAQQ
The target of test [9] is plurality of kinases (Table 5) (Homo sapiens, UniProt Q86UE8). The note with it: plate C8.
plurality of kinases (Table 5) (Homo sapiens, UniProt Q86UE8), sequence (Q86UE8 whole entry): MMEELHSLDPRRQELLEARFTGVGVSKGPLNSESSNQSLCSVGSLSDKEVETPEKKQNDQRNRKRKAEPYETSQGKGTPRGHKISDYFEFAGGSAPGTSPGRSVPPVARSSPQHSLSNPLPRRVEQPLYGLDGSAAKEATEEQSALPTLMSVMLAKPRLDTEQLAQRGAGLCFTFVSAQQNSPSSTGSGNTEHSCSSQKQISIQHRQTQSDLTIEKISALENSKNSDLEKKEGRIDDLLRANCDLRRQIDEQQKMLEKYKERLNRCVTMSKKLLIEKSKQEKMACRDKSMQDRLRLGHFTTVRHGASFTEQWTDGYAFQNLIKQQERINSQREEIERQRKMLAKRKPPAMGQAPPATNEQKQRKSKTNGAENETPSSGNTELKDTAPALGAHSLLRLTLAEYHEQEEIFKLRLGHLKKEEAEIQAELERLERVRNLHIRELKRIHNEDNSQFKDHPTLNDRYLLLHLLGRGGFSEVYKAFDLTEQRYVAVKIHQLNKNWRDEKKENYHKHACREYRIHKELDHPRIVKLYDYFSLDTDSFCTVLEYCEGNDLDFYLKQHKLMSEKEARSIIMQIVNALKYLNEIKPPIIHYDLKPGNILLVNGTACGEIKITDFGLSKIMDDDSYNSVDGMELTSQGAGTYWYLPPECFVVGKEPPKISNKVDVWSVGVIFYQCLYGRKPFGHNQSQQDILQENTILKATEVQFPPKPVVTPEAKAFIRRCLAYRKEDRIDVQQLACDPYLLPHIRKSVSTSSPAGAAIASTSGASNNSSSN
Test [10] has as its target plurality of kinases (Table 5) (Homo sapiens, UniProt Q8IVW4). The note with it: plate F12; inhibitor 100 uM.
Test [11] addresses T3, plurality of kinases (Table 5) (Homo sapiens, UniProt Q96KB5).
T3 sequence (Q96KB5 1-322): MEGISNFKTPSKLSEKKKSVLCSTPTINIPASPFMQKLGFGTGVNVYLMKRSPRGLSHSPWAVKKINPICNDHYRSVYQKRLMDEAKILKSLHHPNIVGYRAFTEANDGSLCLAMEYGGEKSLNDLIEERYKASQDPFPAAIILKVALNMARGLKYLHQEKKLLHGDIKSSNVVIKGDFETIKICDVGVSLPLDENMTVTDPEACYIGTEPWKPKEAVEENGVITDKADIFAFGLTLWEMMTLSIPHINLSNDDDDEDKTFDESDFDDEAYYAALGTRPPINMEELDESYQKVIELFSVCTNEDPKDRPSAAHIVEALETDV
The conditions noted are these: plate G7.

Test [12] has as its target T4, plurality of kinases (Table 5) (Homo sapiens, UniProt Q99759).
T4 sequence (Q99759 1-626): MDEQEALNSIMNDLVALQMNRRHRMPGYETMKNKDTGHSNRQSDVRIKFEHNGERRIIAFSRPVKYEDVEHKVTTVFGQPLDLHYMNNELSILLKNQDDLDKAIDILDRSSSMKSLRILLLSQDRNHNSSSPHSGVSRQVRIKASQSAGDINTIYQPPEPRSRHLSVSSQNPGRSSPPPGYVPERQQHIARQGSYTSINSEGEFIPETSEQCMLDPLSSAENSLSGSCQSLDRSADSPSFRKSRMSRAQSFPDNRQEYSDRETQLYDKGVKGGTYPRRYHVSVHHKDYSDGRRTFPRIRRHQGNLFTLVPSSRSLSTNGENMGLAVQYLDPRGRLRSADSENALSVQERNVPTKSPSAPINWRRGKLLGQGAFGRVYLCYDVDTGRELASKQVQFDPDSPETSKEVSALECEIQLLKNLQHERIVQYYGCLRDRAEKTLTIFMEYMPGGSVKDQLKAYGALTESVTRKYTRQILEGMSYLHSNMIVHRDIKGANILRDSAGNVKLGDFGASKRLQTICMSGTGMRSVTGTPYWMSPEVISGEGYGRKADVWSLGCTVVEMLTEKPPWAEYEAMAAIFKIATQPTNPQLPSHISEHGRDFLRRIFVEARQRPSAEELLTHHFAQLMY
The note with it: plate A1.

plurality of kinases (Table 5) (Homo sapiens, UniProt P37173), sequence (P37173 23-567): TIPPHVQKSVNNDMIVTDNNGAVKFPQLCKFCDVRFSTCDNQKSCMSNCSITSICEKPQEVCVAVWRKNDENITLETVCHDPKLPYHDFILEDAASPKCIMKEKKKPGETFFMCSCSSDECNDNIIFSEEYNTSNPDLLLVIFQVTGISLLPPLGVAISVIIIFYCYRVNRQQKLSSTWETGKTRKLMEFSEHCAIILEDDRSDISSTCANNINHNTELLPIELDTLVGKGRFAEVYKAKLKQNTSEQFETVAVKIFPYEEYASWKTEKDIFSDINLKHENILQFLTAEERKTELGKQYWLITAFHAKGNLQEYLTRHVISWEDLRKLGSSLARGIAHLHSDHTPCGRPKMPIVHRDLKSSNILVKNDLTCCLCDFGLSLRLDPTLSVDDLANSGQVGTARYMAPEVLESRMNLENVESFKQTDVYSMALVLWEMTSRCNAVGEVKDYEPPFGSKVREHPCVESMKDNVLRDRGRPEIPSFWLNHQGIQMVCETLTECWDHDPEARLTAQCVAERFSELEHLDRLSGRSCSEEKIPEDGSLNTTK
plurality of kinases (Table 5) (Homo sapiens, UniProt P11309), sequence (P11309 whole entry): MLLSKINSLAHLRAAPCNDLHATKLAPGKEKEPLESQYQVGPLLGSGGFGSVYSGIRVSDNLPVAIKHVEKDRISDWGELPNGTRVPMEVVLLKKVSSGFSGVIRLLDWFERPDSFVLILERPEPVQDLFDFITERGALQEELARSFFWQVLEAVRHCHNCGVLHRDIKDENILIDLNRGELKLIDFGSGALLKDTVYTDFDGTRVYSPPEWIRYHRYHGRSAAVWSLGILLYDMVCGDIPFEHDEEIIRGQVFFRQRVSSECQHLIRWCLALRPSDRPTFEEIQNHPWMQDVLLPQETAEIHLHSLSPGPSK
plurality of kinases (Table 5) (Homo sapiens, UniProt Q8IVW4), sequence (Q8IVW4 whole entry): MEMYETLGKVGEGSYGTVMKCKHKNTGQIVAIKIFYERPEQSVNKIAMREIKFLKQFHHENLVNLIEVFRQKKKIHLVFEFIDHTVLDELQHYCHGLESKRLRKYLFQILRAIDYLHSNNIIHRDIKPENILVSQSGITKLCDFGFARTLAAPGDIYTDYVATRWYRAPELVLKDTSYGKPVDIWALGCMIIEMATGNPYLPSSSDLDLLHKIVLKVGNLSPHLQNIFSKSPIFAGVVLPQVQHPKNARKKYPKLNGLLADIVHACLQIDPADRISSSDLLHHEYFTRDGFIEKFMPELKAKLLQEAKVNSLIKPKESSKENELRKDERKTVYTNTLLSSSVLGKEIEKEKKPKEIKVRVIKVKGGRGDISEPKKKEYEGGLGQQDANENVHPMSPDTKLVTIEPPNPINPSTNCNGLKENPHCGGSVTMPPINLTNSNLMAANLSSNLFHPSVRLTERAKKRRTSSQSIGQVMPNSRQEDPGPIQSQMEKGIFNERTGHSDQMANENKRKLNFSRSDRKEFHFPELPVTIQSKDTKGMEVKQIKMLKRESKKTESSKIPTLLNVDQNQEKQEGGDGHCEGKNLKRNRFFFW

On to `Cn1cc(C2=C(c3cn(CCCSC(=N)N)c4ccccc34)C(=O)NC2=O)c2ccccc21` [Ro-31-8220], for which the “Inhibition level, STK6” value in test [1] (Ro-31-8220 90 uM) was 0; in [1] (inhibitor 100 uM), 2. Besides, the “Inhibition level, LCK” value is reported as 0 in test [2] (Ro-31-8220 90 uM) and 2 in test [2] (inhibitor 100 uM). Moreover, the “Inhibition level, FYN” value in test [3] (Ro-31-8220 90 uM) came to 0; in test [3] (inhibitor 100 uM), 2. For the same compound, the “Inhibition level, PIM1” value is on record as 2 in [4] (Ro-31-8220 90 uM) and 0 in test [4] (inhibitor 100 uM). The “Inhibition level, PRKCH” value in test [5] (Ro-31-8220, conc. not given) came out at 2; in test [5] (inhibitor 100 uM), 2. Moreover, the “Inhibition level, TGFBR2” value in [6] (Ro-31-8220 90 uM) and in test [6] (inhibitor 100 uM) was 2 each time. Moreover, the figures for the “Inhibition level, MAP2K4” value in test [7] (Ro-31-8220 90 uM) and in test [7] (inhibitor 100 uM) were 0 and 1, respectively. The “Inhibition level, CSNK2A1” value in test [8] (Ro-31-8220, conc. not given) was determined as 0; in test [8] (inhibitor 100 uM), 2. Moreover, the “Inhibition level, TLK2” value in [9] (Ro-31-8220 90 uM) was determined as 2; in [9] (inhibitor 100 uM), 1. Besides, the “Inhibition level, CDKL3” value in test [10] worked out at 2. Besides, the “Inhibition level, TOPK” value is reported as 2 in test [11] (Ro-31-8220 90 uM) and 0 in test [11] (inhibitor 100 uM). Besides, the “Inhibition level, MAP3K3” value in [12] (Ro-31-8220 90 uM) is given as 2; in [12] (inhibitor 100 uM), 0.
